# Patent publication US9623083B2, “Method to screen for an activator of adipose-resident NK cells” (Cornell University, priority 2011, dated 2017)
# Key:
# [1] = system: adipose-resident NKT cells; assay: In vivo effectiveness as activator of adipose-resident NKT cells
# [2] = system: NKT cells in adipose tissue; assay: Flow cytometric analysis of immune cells in adipose tissue after αGalCer challenge; type: in vivo, mice
# Procedure: Single-cell suspensions of stromal vascular cells (SVC) from adipose tissue were prepared as described (Xia et al. (2011)). SVCs from two fat pads per mouse were diluted in 120-200 μl PBS, from which one tenth was used for the subsequent staining Following incubation with anti-CD16/CD32 antibody to block Fc receptors, 1×10^6 cells were incubated with 20 μl of antibodies diluted at optimal concentrations for 20 min at 4° C. Cells were washed three times with PBS and then resuspended in 200 μl PBS for analysis using the FACSCalibur Flow Cytometer (BD Biosciences). NKT cells were defined as CD45^+αGalCer-loaded CD1d-tetramer^+CD3/TCRβ^+ lymphocytes; CD8^+ T cells were defined as CD8^+CD45^+ cells; macrophages were as CD45^+F4/80^+CD11b^+ cells. During the run, samples were completely run out and the total number of CD45^+ lymphocytes or immune cells were gated and counted. The total cell number for various immune cells per g adipose tissue was calculated as (% cells in total CD45^+ lymphocytes or immune cells×total CD45^+ lymphocytes or immune cells)/g adipose tissue.
# For the Brdu staining, mice were injected (i.p.) with αGalCer (100 ng per g body weight) at day 0, and then with BrdU (Sigma, 0.6 mg/10 g body weight) at 36 h and 12 h prior to sacrifice at day 3. SVC of adipose tissues were purified, labeled with cell surface antibodies and then fixed in cold 70% ethanol at −20° C. overnight. The rest of steps were performed as the regular flow cytometric analysis using BrdU-FITC antibody and DNA dye 7-AAD (Anaspec).
# (§1) Accordingly, 6 w-old male mice were fed with either 13% LFD or 60% HFD for indicated period of time from 4 d to 24 w as described in Example 1. αGalCer (Toronto Research Chemicals) was dissolved in pyridine at 2.5 mg/ml and then diluted 1:250 in PBS to prepare 10 μg/ml working solution prior to use. In all experiments, mice were injected i.p. with 200 μl αGalCer (100 ng αGalCer per g body weight). The vehicle control group was injected with PBS with 0.4% pyridine. The dosage and frequency of αGalCer injection were the same for all the gain-of-function experiments unless otherwise indicated. HFD mice were injected with αGalCer or vehicle at day 0 and day 2. GTT was conducted on day 4, followed by sacrificing the mice on (day 5) to harvest adipose tissues (or other tissues as indicated), which were processed for immune cell analysis, frozen for Q-PCR or Western blot, or fixed for H&E staining Flow cytometric analyses of NKT levels and other immune cells were performed on day 5.
# [3] = Glucose tolerance test (GTT) after αGalCer injection; type: in vivo, mice
# Procedure: as §1
# (§2) For GTT, mice were fasted for 16-18 h followed by injection of glucose (Sigma) at 1 g/kg body weight. Blood glucose was monitored using One-Touch Ultra Glucometer. Fasting insulin levels were measured following a 6 h fast.
# [4] = Fasting insulin levels (ELISA); type: in vivo; details: 8 w HFD mice, FIG. 6D
# Procedure: Blood was collected in animals upon 6 h fasting during the day. Circulating insulin levels were measured using the kit from Millipore per supplier's protocols.
# as §2
# [5] = system: M2 genes in adipose tissue; assay: Q-PCR analysis of M1 and M2 genes in white adipose tissue; type: in vivo, mice
# Procedure: RNA extraction from cells and murine tissues, and Q-PCR were carried out as previously described (36) using Trizol (Invitrogen) for liver, and Trizol plus QIAeasy kit (Qiagen) for adipose tissues with DNase digestion (Roche). Q-PCR data collected on the Roche LightCycler 480 were normalized to ribosomal 132 gene in the corresponding sample.
# as §1
# [6] = system: Arg1 protein, p-Y STAT6; assay: Western blot of Arg1 and p-Y STAT6 in WAT and liver; type: in vivo, mice
# Procedure: Tissues or cells were lysed in Tris-based lysis buffer containing 1% Triton X-100. Normally, 15-30 μg of total lysates unless otherwise indicated were used in a mini SDS-PAGE as described (Sha et al. (2009) Cell Metab 9, 556-564). Antibodies specific for (p-Tyr641) STATE and (p-Tyr705) STAT3 (Cell signaling) and Arginase 1 (N-20, Santa Cruz sc-18351) were used at 1:500-2000 and for the loading control HSP90 (Santa Cruz) was used at 1:6000. The secondary antibody goat anti-rabbit IgG HRP (1:10,000) was from Bio-Rad. Quantitation of band density was carried out using the ImageLab software of the Bio-Rad ChemiDoc XRS+system following exposure.
# as §1
# [7] = system: gene expression in WAT; assay: Microarray analysis of WAT; type: in vivo, mice; details: 4 d HFD
# Procedure: Microarray analyses of WAT were performed as described (39) with four groups of mice (n=3-4 per cohort) as follows: WT+veh, WT+αGalCer, CD1d^−/−+veh and CD1d^−/−+αGalCer. All mice were on 4 d HFD feeding with two αGalCer injections at day 0 and day 2. […] Data have been deposited into the GEO datasets (GSE36032). The array data of IL-4-treated mouse BMDM for 10 days were obtained from the Gene Expression Omnibus (GEO) database with accession number GSE25088 (Szanto A. et al. (2010)).
# [8] = Body and epididymal fat weights; type: in vivo; details: HFD mice, FIG. 4B
# Procedure: as §1
# [9] = system: cells surrounding adipocytes; assay: H&E histology of adipose tissue; type: in vivo, mice; details: WT, 4 d HFD, FIG. 3D; abolished by CD1d deficiency
# Procedure: Adipose tissues were fixed in 4% formaldehyde, embedded in paraffin and sectioned by the Cornell Histology Core Facility. Pictures were taken using the Axiovert 200M microscope (Zeiss).
# as §1
# [10] = literature (Berzins 2011; Giaccone 2002); cited from earlier work
# [11] = one injection of αGalCer, Ohmura et al. (2010); cited from earlier work
smiles,measurement,setting,value
"CCCCCCCCCCCCCCCCCCCCCCCC(=O)NC(COC1O[C@H](CO)[C@H](O)[C@H](O)[C@H]1O)C(O)C(O)CCCCCC (stereo partly shown) [OCH, tetracosanoic acid 1-galactopyranosyloxy-3,4-dihydroxydec-2-yl amide]",effectiveness in vivo,[1],not effective in vivo
"CCCCCCCCCCCCCCCCCCCCCCCCCC(=O)N[C@@H](CO[C@H]1O[C@H](CO)[C@H](O)[C@H](O)[C@H]1O)[C@H](O)[C@H](O)CCCCCCCCCCCCCC [αGalCer, (2S,3S,4R)-1-O-(alpha-D-galactosyl)-N-hexacosanoyl-2-amino-1,3,4-octadecanetriol]",macrophages and CD8+ T cells in adipose tissue,"[2]; 4 d HFD mice, FIG. 5A",milder increases
same,increase in percentage of NKT cells in adipose tissue,"[2]; 4 d HFD mice, αGalCer 100 ng per g body weight i.p. day 0 and day 2, FIG. 3C",> 4 fold
same,increase in total cell number of NKT cells in adipose tissue,"[2]; 4 d HFD mice, αGalCer i.p. day 0 and day 2, FIG. 5A",70 fold
same,reduction of total lymphocytes in WAT of IL-4-/- mice relative to WT cohorts after αGalCer,"[2]; 4 d HFD, FIG. 12B",approximately 40%
same,effect on glucose tolerance in CD1d-/- mice,"[3]; CD1d-/- mice, 4 d HFD, FIG. 6E",no effect
same,αGalCer effect in glucose tolerance in IL-4-/- mice,"[3]; IL-4-/- mice, 4 d HFD, FIG. 11B-C",completely abolished
same,systemic glucose tolerance,"[3]; WT mice at all stages of HFD (4 d, 8 w, 24 w), FIGS. 6A-C",improved systemic glucose tolerance
same,effect on glucose tolerance in mice on LFD,"[3]; WT mice on LFD, FIG. 6F",no effect on glucose tolerance
same,effect on fasting insulin levels,[4],no effect
same,Il4 mRNA levels in WAT,"[5]; 4 d HFD, NKT-dependent, FIG. 9F",highly induced
same,αGalCer-mediated induction of M2 genes in WAT of myeloid cell-specific PPARγ or PPARβ/δ-deficient animals,"[5]; 4 day HFD, vs WT control littermates, FIG. 12C",not affected
same,"αGalCer-mediated induction of M2 genes Arg1, Chi3l3, Pdcd1Ig2 and Arg1 protein in WAT with loss of IL-4","[5]; IL-4-/- mice, 4 d HFD, FIG. 11D-F",markedly attenuated
same,"induction of a subset of M2 genes (Arg1, Chi313, Pdcd1Ig2) in adipose tissue","[5]; all three HFD models, NKT-dependent, FIGS. 7A-B and 8A",50-100 fold
same,Arg1 protein in CD1d-/- WAT,"[6]; CD1d-/- mice, FIG. 7C-D",abolished
same,tyrosine phosphorylation (p-Y) of STAT6 in WAT following αGalCer with loss of IL-4,"[6]; IL-4-/- mice, 4 d HFD, FIG. 11E-F",completely abolished
same,Arg1 protein in WT WAT,"[6]; WT mice, HFD, FIG. 7C-D",significantly induced
same,hepatic STAT6 activation,"[6]; liver of WT mice, 4 d HFD, FIG. 11G",not activated
same,Arg1 protein induction in the liver,"[6]; liver, 4 d or 8 w HFD, FIG. 8B",not observed in the liver
same,number of genes whose expression was significantly increased by more than 2-fold in WAT,"[7]; WT vs CD1d-/-, NKT-dependent, FIG. 9A","1,556 genes"
same,"Arg1 expression, αGalCer vs. veh in WT WAT","[7]; microarray, FIG. 9B",32 fold
same,"Chi313 expression, αGalCer vs. veh in WT WAT","[7]; microarray, FIG. 9B",138 fold
same,"pdcd1Ig2 expression, αGalCer vs. veh in WT WAT","[7]; microarray, FIG. 9B",53 fold
same,effect on body and epididymal fat weights,[8],no discernible effect
same,number of cells surrounding adipocytes in WAT sections,[9],significant increase
same,tolerability in humans,[10],well tolerated
same,toxicity,[10],not toxic
same,effect on glucose tolerance in HFD animals,[11],mild effect
